Values of other authors as cited in PMC7465340, “Preparation and Evaluation of Eudragit L100-PEG Proliponiosomes for Enhanced Oral Delivery of Celecoxib” (Pharmaceutics, 2020).
Converted amounts (≈) assume the structure as drawn. Where two headings read alike, the source gives them in different places.

- solubility in aqueous media (pH 1.2): 1.4 µg/mL (≈ 3.67 µM)
- solubility in aqueous media (pH 6.8): 1.2 µg/mL (≈ 3.15 µM)
- solubility of free CXB (pH 6.8): ≈ 1.23 ± 0.05 μg/mL
SMILES: Cc1ccc(-c2cc(C(F)(F)F)nn2-c2ccc(S(N)(=O)=O)cc2)cc1 [CXB, Celecoxib]
